The results in this text go back to patent US12662487B2, “Imidazo[1,2-b][1,2,4]triazol derivatives for use in therapy” (SANOFI, priority 2021, dated 2026).

The target of one assay is T1, Nur77 (Homo sapiens, UniProt P22736).
T1 construct: the Pfr-Luc (Gal4-responsive luciferase) reporter sits in the same cells
The assay is described as follows: Activity on HEK - Nur77 modulation (Gal4-DBD luciferase reporter in stable HEK293 cells). It counts as cell-based. The conditions noted are these: HEK293 cells expressing Gal4-DBD-hNur77 and Pfr-Luc; 24 hours with compound; luminescence. As to the method: Stable HEK293 cells expressing Gal4-DBD-FL-NOT, -hNur77, -hNOR1 and Pfr-Luc were obtained by limit dilution. HEK cells were grown in 75 cm^2 flask in DMEM high glucose 30-2002™ containing 10% calf serum, hygromycin at a content of 250 μg/ml, doxycycline at a content of 2 μg/ml (to induce expression) and 0.4 mg/ml of penicillin. After one week in culture, cells were harvested by trypsinization then plated onto 96 well dishes at the density of 20 000 cell per well in 75 μl of culture medium. After 24 hours compounds were added (25 μl per well) at different concentration for further 24 hours. The medium was removed and measurement was performed by adding 50 μl of Steadyglo (Promega, E2510) with 50 μl PBS per well for 15 minutes and plates were read using microplate luminescent reader.
A general note: In a reporter assay the amount or activity of a reporter protein is the signal.

The target of another assay is T2, Nurr1 (Mus musculus, UniProt Q06219).
T2 construct: N2A cells obtained from ATCC were stably transfected with NBRE8x (50-AAGGTCA-30) in tandem coupled with luciferase reporter gene; host or cells: N2A neuroblastoma cells
T2 sequence (Q06219 whole entry): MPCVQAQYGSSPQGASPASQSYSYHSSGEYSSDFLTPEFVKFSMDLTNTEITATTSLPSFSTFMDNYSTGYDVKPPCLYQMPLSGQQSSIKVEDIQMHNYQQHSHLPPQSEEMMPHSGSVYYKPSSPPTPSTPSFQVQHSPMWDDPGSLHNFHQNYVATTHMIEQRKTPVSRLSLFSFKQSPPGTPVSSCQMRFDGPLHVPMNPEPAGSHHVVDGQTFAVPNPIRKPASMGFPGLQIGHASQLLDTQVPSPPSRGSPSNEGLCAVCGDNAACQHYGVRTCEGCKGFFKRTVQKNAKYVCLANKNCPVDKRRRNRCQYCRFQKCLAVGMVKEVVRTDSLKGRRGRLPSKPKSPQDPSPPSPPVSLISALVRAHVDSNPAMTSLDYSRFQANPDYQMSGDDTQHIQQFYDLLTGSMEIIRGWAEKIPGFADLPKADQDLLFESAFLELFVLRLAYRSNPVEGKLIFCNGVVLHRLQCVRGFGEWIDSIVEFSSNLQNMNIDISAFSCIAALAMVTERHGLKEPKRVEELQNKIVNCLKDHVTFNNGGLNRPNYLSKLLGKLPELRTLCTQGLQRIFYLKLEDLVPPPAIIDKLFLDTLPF
Put plainly: Activity on neuroblastoma cell lines - Nurr1 modulation (NBRE8x luciferase reporter in N2A cells). Format: cell-based. The conditions noted are these: N2A cells stably transfected with NBRE8x luciferase reporter; 24 hours with compound. As to the method: N2A cells obtained from ATCC were stably transfected with NBRE8x (50-AAGGTCA-30) in tandem coupled with luciferase reporter gene. Each NBRE sequence was separated with 5 nucleotides. N2A were grown in 75 cm^2 flask in DMEM containing 10% calf serum, 4.5 g/L glucose and 0.4 mg/ml geneticin. After one week in culture cells were harvested by trypsinization (0.25%, 30 minutes) then plated onto 96 well dishes at the density of 60 000 cell per well in 75 μl of DMEM without phenol red containing 4.5 g/l glucose, 10% lipid free serum from Hyclone. After 24 hours compounds were added (25 μl/well) at different concentration for further 24 hours. Measurement is performed by adding 100 μl of Steadylite per well for 30 minutes and plates were read using microplate […] reader.

T1 sequence (P22736 360-598 limits assumed): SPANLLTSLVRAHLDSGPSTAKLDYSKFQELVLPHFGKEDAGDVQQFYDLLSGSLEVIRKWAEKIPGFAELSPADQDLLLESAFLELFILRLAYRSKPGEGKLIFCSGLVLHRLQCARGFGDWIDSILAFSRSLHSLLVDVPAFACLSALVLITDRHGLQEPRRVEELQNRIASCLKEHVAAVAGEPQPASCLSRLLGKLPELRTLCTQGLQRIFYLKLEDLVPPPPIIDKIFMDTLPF

As usually defined, the IC50 is the concentration that inhibits the measured activity by half. For orientation: EC50 means the concentration at which the effect is half-maximal. As to `Cn1c(-c2ccccc2)cn2nc(-c3cccc(CO)c3)nc12` [compound (3), [3-(4-methyl-5-phenyl-4H-imidazo[1,2-b][1,2,4]triazol-2-yl)phenyl]methanol], at Nur77, the IC50 came to 0.9 nM. Besides, the EC50 at Nurr1 was determined as 0.4 nM.
`Cn1c(-c2cccc(F)c2)cn2nc(-c3ccc(F)cc3)nc12` [compound (2), 5-(3-fluorophenyl)-2-(4-fluorophenyl)-4-methyl-4H-imidazo[1,2-b][1,2,4]triazole]: at Nurr1, the 50% effective concentration (EC50) stood at 63 nM.
Consider `Cn1c(-c2ccc3cc[nH]c3c2)cn2nc(-c3ccc(F)cc3)nc12` [compound (1), 6-[2-(4-fluorophenyl)-4-methyl-imidazo[1,2-b][1,2,4]triazol-5-yl]-1H-indole], for which the IC50 on Nur77 was 0.03 nM. Moreover, the EC50 at Nurr1 turned out to be 0.7 nM.
